Measurements reported in patent US7906283B2, “Methods to identify patients at risk of developing adverse events during treatment with antidepressant medication” (The United States of America as represented by the …, priority 2006, dated 2011).

System: outpatients with major depressive disorder
Experiment: STAR*D trial: treatment-emergent suicidal ideation (TESI) by QIDS-SR16 item 12 during citalopram treatment
Type: in vivo, human
Details: citalopram typically starting at 20 mg/day, up to 14 weeks; comparison group n=1742; 53 participants missing data excluded
Source text: DNA was collected from a clinically-representative cohort of 1938 outpatients with major depressive disorder enrolled in the Sequenced Treatment Alternatives to Relieve Depression (STAR*D) trial. Outpatients 18-75 years of age with a baseline 17-item Hamilton Depression Rating Scale (see Hamilton et al., J. Neurol. Neurosurg. Psychiatry, 23: 56-62 (1960); and Hamilton, Br. J. Soc. Clin. Psychol., 6(4): 278-296 (1967)) (HRSD17) score of ≧14 who met the Diagnostic and Statistical Manual of Mental Disorders (DSM)-IV criteria for non-psychotic major depressive disorder (MDD) were eligible for the trial. […]
The 16-item Quick Inventory of Depressive Symptomatology—Self-report (QIDS-SR16) was used as a measure of symptom severity (see Rush et al., Int. J. Methods Psychiatr. Res., 9: 45-59 (2000): Rush et al., Biol. Psychiatry, 54(5): 573-583 (2003); Trivedi et al., Psychol. Med., 34(1): 73-82 (2004); Rush et al., Neuropsychompharmacology, 30(2): 405-416 (2005); and Rush et al., Biol. Psychiatry, 59(6): 493-501 (2006)) and was obtained at baseline and at each bi-weekly clinic visit. […] Participants who scored “0” on this item before citalopram treatment, but who scored 1, 2, or 3 on the same item at least once while receiving citalopram were defined as TESI cases (n=120). […]

## CN(C)CCCC1(c2ccc(F)cc2)OCc2cc(C#N)ccc21 (stereo not shown) [citalopram]
  TESI cases (scored 0 on QIDS-SR16 item 12 before citalopram treatment, but 1, 2 or 3 at least once while receiving citalopram): 120 participants
